Reference: US8927046B2, “Resveratrol compositions” (DSM IP Assets B.V., priority 2009, dated 2015)

Tests used:
Type in all cases: physicochemical
[1] = Dissolution time in water at 80° C.; conditions: at 80° C. in water, to reach a concentration of 120 mg/liter
Protocol: (§1) At 80° C. in water, resveratrol crystals need more than 15 minutes to dissolve completely to reach a concentration of 120 mg/liter. […] After the milling, the resveratrol CWS is dissolved within 1 minute at 80° C. 1 minute at 80° C. are standard conditions for the pasteurization step for the production of the beverages. This dissolution of the resveratrol during this pasteurization step ensures a good physical stability of the resveratrol in the beverages.

[2] = Deposits or visible recrystallization in beverages
Description: Preparation: • Dissolve potassium sorbate in a small quantity of water. • Add citric acid solution, dry vitamin E 15% CC and resveratrol CWS. • Stir until all ingredients have dissolved. • Add sugar, stir again and add water to 1 liter. • Fill into appropriate packages and pasteurize or pasteurize and fill aseptically.
Preparation: • Dissolve potassium sorbate in a part of water under stirring. • Add resveratrol CWS under further stirring. • Add sugar syrup, ascorbic acid, citric acid solution, water-soluble flavour and beta-carotene solution, one after the other, under stirring (no high-speed mixer). • Dilute the bottling syrup to one liter of beverage. • Fill into appropriate packages and pasteurize or pasteurize and fill aseptically.

[3] = trans-resveratrol suspended in mineral drink water (Arkina) after pasteurization at 80° C. for 1 minute; HPLC concentration and deposit observation; conditions: for Concentration after 18 hours / Concentration after 5 days / Concentration initial: HPLC
Protocol: as §1
Different concentration of Resvida™ (resveratrol cryst.) not milled were dispersed in mineral drink water (Arkina) and pasteurized at 80° C. for 1 minute. The following results with trans-resveratrol suspended in water (analysis done with HPLC) have been obtained:
This powder was dissolved in mineral drink water (Arkina) and pasteurized at 80° C. for 1 minute. The following results with trans-resveratrol suspended in water (analysis done with HPLC) have been obtained: […]

[4] = theoretical concentration 81.5 mg/liter, mineral drink water, pasteurized 80° C. 1 minute
[5] = theoretical concentration 98.5 mg/liter, mineral drink water, pasteurized 80° C. 1 minute
[6] = theoretical concentration 119 mg/liter, mineral drink water, pasteurized 80° C. 1 minute
[7] = theoretical concentration 160 mg/liter, mineral drink water, pasteurized 80° C. 1 minute
[8] = theoretical concentration 205.5 mg/liter, mineral drink water, pasteurized 80° C. 1 minute

time to dissolve completely [1]: more than 15 minutes
Observation [3, 4]: Deposits +
Concentration after 18 hours [3, 4]: 62.0 µg/mL
Concentration after 5 days [3, 4]: 65.0 µg/mL
Concentration initial [3, 4]: 71.8 µg/mL
Concentration after 18 hours [3, 5]: 67.0 µg/mL
Concentration after 5 days [3, 5]: 47.1 µg/mL
Concentration initial [3, 5]: 87.4 µg/mL
Concentration after 18 hours [3, 6]: 67.7 µg/mL
Concentration after 5 days [3, 6]: 55.5 µg/mL
Concentration initial [3, 6]: 102.6 µg/mL
Concentration after 18 hours [3, 7]: 67.5 µg/mL
Concentration after 5 days [3, 7]: 46.4 µg/mL
Concentration initial [3, 7]: 123.7 µg/mL
Concentration after 18 hours [3, 8]: 61.3 µg/mL
Concentration after 5 days [3, 8]: 40.5 µg/mL
Concentration initial [3, 8]: 142.0 µg/mL
Structure (SMILES): Oc1ccc(C=Cc2cc(O)cc(O)c2)cc1 [Resvida, 3,5,4′-trihydroxystilbene]
deposit when used instead of the CWS form ([2]; near water beverage of Example 9): a deposit remained which could not be dissolved
deposit when used instead of the CWS form ([2]; soft drink of Example 10): a deposit remains which can not be dissolved
physical stability of resveratrol dissolved at 80° C. ([3]; at room temperature, after dissolution in water at 80° C.): crystallize and make deposits within a couple of days
